Measured values reported in patent US20060223117A1, “Novel splice variants of human epithelial sodium channel genes expressed in human taste tissue and uses thereof” (SENOMYX, INC., priority 2005, published 2006).
Entries after “also recorded” stand apart in the source; their conditions may differ.

What was measured:
perceived salt intensity = test: Senomyx human taste experiments, perceived salt intensity; format: in vivo
[1] = tested on: intensity of sodium chloride; conditions: humans; concentrations that specifically inhibit ENaC function; cited from earlier work

SMILES	effect on perceived salt intensity (perceived salt intensity; tested at levels 3000-fold (printed: for benzamil) above IC50 values in oocytes)	effect on perceived salt intensity (perceived salt intensity; tested at levels 3000-fold (printed: for benzamil) above IC50 values in oocytes, listed as phenomil)	effect on perceived salt intensity (perceived salt intensity; tested at levels 300-fold above IC50 values in oocytes)	reduction of the intensity of sodium chloride [1]
NC(=Nc1ccccc1)NC(=O)c1nc(Cl)c(N)nc1N [phenamil]	did not demonstrate a significant effect	did not exhibit a significant effect	–	–
N=C(N)NC(=O)c1nc(Cl)c(N)nc1N [amiloride]	–	–	did not exhibit a significant effect; also recorded: did not demonstrate a significant effect	15-20%
